# Laboratory results reported in patent US20230092490A1, “PHARMACEUTICAL COMPOSITIONS COMPRISING DASATINIB ANHYDROUS AND USES THEREOF” (ZENTIVA K.S., priority 2020, published 2023).
# Like-named read-outs stand apart in the source and are kept apart here.
# Tests used:
# [1] = Preliminary bioequivalence study of DA1 vs. RP in eighty healthy subjects; format: in vivo, human; conditions: total study population
# Protocol: First, a preliminary bioequivalence study assessed in-vivo absorption of DA1 and RP. This bioequivalence study and its results are summarized in Example 2, below, and data are shown in FIG. 3 to FIG. 6 for four exemplary subjects A to D in that study.
# Example 3, together with corresponding Table 4, presents additional results from the clinical study of Example 2, comparing the bioavailability of DA1 vs RP.
# A preliminary bioequivalence study in eighty (80) healthy subjects was conducted to test the in-vivo absorption of RP and DA1.
# Additional data from the bioequivalence study of Example 2, which compared the bioequivalence of DA1 against the reference product (“RP”) are summarised in Table 4 below.
# [2] = Oral bioavailability and pharmacokinetics of dasatinib monohydrate (background); conditions: human, in vivo, read-out: subjects exhibiting atypical pharmacokinetic profiles (reduced bioavailability, likely achlorhydria or hypochlorhydria)
# [3] = pH 2.6; cited from earlier work
# [4] = cited from earlier work
# [5] = in vivo; cited from earlier work
# [6] = administered 10 hours following the H2 antagonist famotidine
# [7] = co-administration with aluminium hydroxide or magnesium hydroxide
# [8] = single 100 mg dose 22 hours following a 4-day 40-mg omeprazole dose at steady state
absorption across all subjects [1],percentage of subjects with atypical pharmacokinetic profiles [2] [%],SMILES,thermodynamic (equilibrium) solubility [3] [mg/mL],"reduction of AUC [4, 6] [%]","reduction of Cmax [4, 6] [%]","reduction in Cmax [4, 7] [%]","reduction of the area under the curve (AUC) [4, 7] [%]","reduction of AUC [4, 8] [%]","reduction of Cmax [4, 8] [%]",time at which peak concentration is reached [5] [h]
absorbed in all subjects,–,"Cc1nc(Nc2ncc(C(=O)Nc3c(C)cccc3Cl)s2)cc(N2CCN(CCO)CC2)n1 [Dasatinib anhydrous, N-(2-chloro-6-methylphenyl)-2-[[6-[4-(2-hydroxyethyl)-1-piperazinyl]-2-methyl-4-pyrimidinyl]amino]-5-thiazolecarboxamide]",–,–,–,–,–,–,–,–
–,3.5 to 7.5,"Cc1nc(Nc2ncc(C(=O)Nc3c(C)cccc3Cl)s2)cc(N2CCN(CCO)CC2)n1 [dasatinib monohydrate, N-(2-chloro-6-methylphenyl)-2-[[6-[4-(2-hydroxyethyl)-1-piperazinyl]-2-methyl-4-pyrimidinyl]amino]-5-thiazolecarboxamide]",18.4,61,63,58,55,43,42,1 to 2
